Test results reported in ChEMBL document CHEMBL5346923, “Novel pyridinium cationic pleuromutilin analogues overcoming bacterial multidrug resistance” (Eur J Med Chem, 2023).

Assays:
Staphylococcus aureus [1] = assay: Antibacterial activity against methicillin-resistant Staphylococcus aureus infected in rabbit RBC assessed as reduction in alpha-heamolysin by absorbance based analysis; assay type: functional, organism-based; conditions: Erythrocyte
Staphylococcus aureus [2] = assay: Antibacterial activity against methicillin-resistant Staphylococcus aureus infected in rabbit RBC assessed as reduction in alpha-heamolysin at 0.25 times of MIC by absorbance based analysis; assay type: functional, Erythrocyte; parameters: scale not given: the % may be the effect or the level left
Staphylococcus aureus [3] = assay: Antibacterial activity against methicillin-resistant Staphylococcus aureus infected in rabbit RBC assessed as reduction in alpha-heamolysin at 1 times of MIC by absorbance based analysis; assay type: functional, Erythrocyte; parameters: scale not given: the % may be the effect or the level left
Staphylococcus aureus [4] = assay: Antibacterial activity against methicillin-resistant Staphylococcus aureus infected in rabbit RBC assessed as reduction in alpha-heamolysin at 0.5 times of MIC by absorbance based analysis; assay type: functional, Erythrocyte; parameters: scale not given: the % may be the effect or the level left

With `C=C[C@]1(C)C[C@@H](OC(=O)CSc2cc[n+](CCCCCCC)cc2)[C@]2(C)[C@H](C)CC[C@]3(CCC(=O)[C@H]32)[C@@H](C)[C@@H]1O.[I-]` the Activity (Staphylococcus aureus [1]) was “Dose-Dependent Effect”, the Activity (Staphylococcus aureus [2]) was 25% and the Activity (Staphylococcus aureus [3]) was 93%. It also gave an Activity (Staphylococcus aureus [4]) of 34%.
